Laboratory results taken from patent publication US9708336B2, “Metallo-beta-lactamase inhibitors” (priority 2014, dated 2017).
Like-named read-outs stand apart in the source and are kept apart here.

Columns and labels:
[1] = biological target: VIM-1 (Pseudomonas aeruginosa (strain ATCC 15692 / DSM 22644 / CIP 104116 / JCM 14847 / LMG 12228 / 1C / PRS 101 / PAO1), UniProt A0A0F7KYQ8); test: Enzyme activity: determination of IC50, fluorescence assay with CCF2-FA substrate (VIM-1); type: biochemical
[2] = biological target: IMP-1 (Serratia marcescens, UniProt P52699); test: biochemical; type: biochemical; details: read-out: IMP-1 IC50
Chain of IMP-1 (P52699 whole entry, looked up): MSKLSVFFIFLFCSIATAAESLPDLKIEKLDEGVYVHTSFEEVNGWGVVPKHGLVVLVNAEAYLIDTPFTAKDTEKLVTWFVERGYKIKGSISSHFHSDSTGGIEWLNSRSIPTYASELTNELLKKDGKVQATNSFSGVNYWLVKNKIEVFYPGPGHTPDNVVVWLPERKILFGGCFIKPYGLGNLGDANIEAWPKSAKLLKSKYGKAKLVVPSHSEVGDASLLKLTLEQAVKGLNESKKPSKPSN

[3] = biological target: NDM-1 (Klebsiella pneumoniae, UniProt C7C422); test: biochemical; type: biochemical; details: read-out: NDM-1 IC50
Chain of NDM-1 (C7C422 whole entry, looked up, species assumed): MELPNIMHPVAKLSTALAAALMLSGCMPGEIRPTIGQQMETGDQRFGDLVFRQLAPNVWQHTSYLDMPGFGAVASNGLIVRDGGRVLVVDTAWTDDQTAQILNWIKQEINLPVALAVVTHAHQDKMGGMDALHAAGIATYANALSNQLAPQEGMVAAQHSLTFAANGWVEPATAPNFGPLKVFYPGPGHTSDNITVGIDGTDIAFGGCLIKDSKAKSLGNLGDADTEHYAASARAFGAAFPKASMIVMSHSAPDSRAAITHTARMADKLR

[4] = tested on: Escherichia coli expressing NDM-1 (CLB30016); test: Antibiotic potentiation activity: synergistic concentration (MITC95) with imipenem, OD600 growth; type: cell-based; details: for Escherichia coli expressing NDM-1 (CLB 30016) MITC95: concentration giving 95% inhibition of bacterial growth
Summary of the method: (§1)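 Each strain, suspended in saline from overnight colonies and diluted 1:100 into 1.1× CAMHB, is dosed with imipenem at 4 μg/ml (or 1 μg/ml) plus compound, incubated 22–24 h at 35 °C and read by absorbance.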

[5] = tested on: Serratia marcescens expressing IMP-1 (CL5741); test: as above; type: cell-based; details: for Serratia marcescens expressing IMP-1 (CL5741) MITC95: concentration giving 95% inhibition of bacterial growth
Summary of the method: as §1

[6] = tested on: Klebsiella pneumoniae expressing VIM-1 (IHMA599644); test: as above; type: cell-based; details: for Klebsiella pneumoniae expressing VIM-1 (IHMA 599644) MITC95: concentration giving 95% inhibition of bacterial growth
Summary of the method: as §1

[7] = fluorescence assay with CCF2-FA substrate, read-out: VIM-1 IC50
[8] = fluorescence assay with CCF2-FA substrate
[9] = CLB30016 (NDM-1), 95% inhibition of bacterial growth
[10] = CL5741 (IMP-1), 95% inhibition of bacterial growth
[11] = IHMA599644 (VIM-1), 95% inhibition of bacterial growth
[12] = VIM-1 enzyme, CCF2-FA substrate, read-out: VIM-1 IC50
[13] = IMP-1 enzyme, CCF2-FA substrate
[14] = NDM-1 enzyme, CCF2-FA substrate
[15] = (CLB30016, NDM-1), 95% growth inhibition
[16] = Serratia marcescens CL5741 (IMP-1), 95% growth inhibition
[17] = Klebsiella pneumoniae IHMA599644 (VIM-1), 95% growth inhibition
[18] = VIM-1 IC50, VIM-1 enzyme, CCF2-FA substrate
[19] = VIM-1 enzyme, CCF2-FA fluorescence assay, read-out: VIM-1 IC50
[20] = IMP-1 enzyme, CCF2-FA fluorescence assay
[21] = NDM-1 enzyme, CCF2-FA fluorescence assay
[22] = Escherichia coli expressing NDM-1 (CLB30016), 95% growth inhibition
[23] = Serratia marcescens expressing IMP-1 (CL5741), 95% growth inhibition
[24] = Klebsiella pneumoniae expressing VIM-1 (IHMA599644), 95% growth inhibition

| Structure (SMILES) | IC50 [1, 12] [nM] | IC50 [2, 13] [nM] | IC50 [3, 14] [nM] | Escherichia coli MITC95 [4, 15] [µM] | Serratia marcescens MITC95 [5, 16] [µM] | Klebsiella pneumoniae MITC95 [6, 17] [µM] | further results |
| --- | --- | --- | --- | --- | --- | --- | --- |
| NS(=O)(=O)c1nccc(N2CCC(N3CCCC3)CC2)c1-c1nnn[nH]1 [Example 222, 4-(4-pyrrolidin-1-ylpiperidin-1-yl)-3-(1H-tetrazol-5-yl)pyridine-2-sulfonamide] | – | – | – | – | – | – | IC50 [1, 7]: 794 nM; IC50 [2, 8]: 20000 nM; IC50 [3, 8]: 5150 nM; Escherichia coli expressing NDM-1 (CLB 30016) MITC95 [4]: 12.5 µM; Serratia marcescens expressing IMP-1 (CL5741) MITC95 [5]: 75 µM; Klebsiella pneumoniae expressing VIM-1 (IHMA 599644) MITC95 [6]: 12.5 µM |
| NC1CCC2CN(c3ccc(C(F)(F)F)c(S(N)(=O)=O)c3-c3nnn[nH]3)CC2C1 (stereo not drawn) [Example 767, 3-(5-aminooctahydro-2H-isoindol-2-yl)-2-(1H-tetrazol-5-yl)-6-(trifluoromethyl) benzenesulfonamide] | – | – | – | – | – | – | IC50 [1, 7]: 4.58 nM; IC50 [2, 8]: 223 nM; IC50 [3, 8]: 208 nM; Escherichia coli MITC95 [4, 9]: 200 µM; Serratia marcescens MITC95 [5, 10]: 50 µM; Klebsiella pneumoniae MITC95 [6, 11]: 12.5 µM |
| NS(=O)(=O)c1c(C(F)(F)F)ccc(-c2ccc(C3CNCCO3)cc2)c1-c1nnn[nH]1 (stereo not drawn) [Example 713, 4′-morpholin-2-yl-2-(1H-tetrazol-5-yl)-4-(trifluoromethyl)biphenyl-3-sulfonamide] | 0.819 | 3.54 | 3.27 | 3.125 | 6.25 | 3.125 | – |
| NS(=O)(=O)c1cccc(-c2ccc(C3CCN(CC4CCNC4)CC3)cc2)c1-c1nnn[nH]1 (stereo not drawn) [Example 618, 3-[4-[1-(pyrrolidin-3-ylmethyl)-4-piperidyl]phenyl]-2-(1H-tetrazol-5-yl)benzenesulfonamide] | 345 | 16.1 | 11.7 | 0.3906 | 0.3906 | 75 | – |
| Nc1nc2c(-c3ccc(CC4CNC4)c(S(N)(=O)=O)c3-c3nn[nH]n3)cccc2s1 [Example 545, 3-(2-aminobenzo[d]thiazol-4-yl)-6-(azetidin-3-ylmethyl)-2-(2H-tetrazol-5-yl)benzenesulfonamide] | – | 21.8 | 2.72 | 0.7813 | 3.125 | 3.125 | IC50 [1, 18]: 7.69 nM |
| NC1CC(N2CC(c3ccc(-c4ccc(C(F)(F)F)c(S(N)(=O)=O)c4-c4nnn[nH]4)cc3)C2)C1 (stereo not drawn) [Example 807, 4′-[1-(3-aminocyclobutyl)azetidin-3-yl]-2-(1H-tetrazol-5-yl)-4-(trifluuromethyl)biphenyl-3-sulfonamide] | – | – | – | – | – | – | IC50 [1, 7]: 19.9 nM; IC50 [2, 8]: 5.16 nM; IC50 [3, 8]: 3.97 nM; Escherichia coli MITC95 [4, 9]: 1.563 µM; Serratia marcescens MITC95 [5, 10]: 6.25 µM; Klebsiella pneumoniae MITC95 [6, 11]: 25 µM |
| NCCN[C@H]1CC[C@@H](c2ccc(C(F)(F)F)c(S(N)(=O)=O)c2-c2nnn[nH]2)CC1 [Example 828, 3-((1s,4s)-4-((2-aminoethyl)amino)cyclohexyl)-2-(1H-tetrazol-5-yl)-6-(trifluoromethyl)benzenesulfonamide] | – | – | – | – | – | – | IC50 ([1]; VIM-1 IC50, fluorescence assay with CCF2-FA substrate): 73.3 nM; IC50 [2, 8]: 72.9 nM; IC50 [3, 8]: 8.29 nM; Escherichia coli MITC95 [4, 9]: 0.7813 µM; Serratia marcescens MITC95 [5, 10]: 1.563 µM; Klebsiella pneumoniae MITC95 [6, 11]: 6.25 µM |
| NS(=O)(=O)c1c(C(F)(F)F)ccc(N2CCC[C@H](O)C2)c1-c1nnn[nH]1 [Example 657, 3-[(3S)-3-hydroxypiperidin-1-yl]-2-(1H-tetrazol-5-yl)-6-(trifluoromethyl)benzenesulfonamide] | 2.09 | 10.2 | 9.66 | 2.344 | 0.7813 | 4.688 | – |
| NS(=O)(=O)c1c(C(F)(F)F)ccc(-c2ccc(C3CNC3)cc2)c1-c1nn[nH]n1 [Example 433, 4′-(azetidin-3-yl)-2-(2H-tetrazol-5-yl)-4-(trifluoromethyl)-[1,1′-biphenyl]-3-sulfonamide] | – | – | – | – | – | – | IC50 [1, 19]: 0.984 nM; IC50 [2, 20]: 0.563 nM; IC50 [3, 21]: 0.875 nM; Escherichia coli MITC95 [4, 22]: 0.6406 µM; Serratia marcescens MITC95 [5, 23]: 0.1875 µM; Klebsiella pneumoniae MITC95 [6, 24]: 0.7656 µM |
| N#Cc1ccc2ncc(-c3cccc(S(N)(=O)=O)c3-c3nnn[nH]3)n2c1 [Example 648, 3-(6-cyanoimidazo[1,2-a]pyridin-3-yl)-2-(1H-tetrazol-5-yl)benzenesulfonamide] | 15.3 | 95.7 | 5.11 | 1.563 | 6.25 | 12.5 | – |
| NS(=O)(=O)c1c(C(F)(F)F)ccc(-c2ccc(C3CCN(C[C@@H]4CNCCO4)CC3)cc2)c1-c1nnn[nH]1 [Example 678, 4′-{1-[(2S)-morpholin-2-ylmethyl]piperidin-4-yl}-2-(1H-tetrazol-5-yl)-4-(trifluoromethyl)biphenyl-3-sulfonamide] | 20.7 | 5 | 15.3 | 9.375 | 6.25 | 150 | – |
| Cl.Cl.NC1CNCCC1(O)c1ccc(-c2cccc(S(N)(=O)=O)c2-c2nn[nH]n2)cc1 (racemic) [Example 282, 4′-(3-amino-4-hydroxypiperidin-4-yl)-2-(2H-tetrazol-5-yl)-[1,1′-biphenyl]-3-sulfonamide dihydrochloride (trans, racemate)] | – | – | – | – | – | – | IC50 [1, 19]: 183 nM; IC50 [2, 20]: 266 nM; IC50 [3, 21]: 21.5 nM; Escherichia coli MITC95 [4, 22]: 0.7813 µM; Serratia marcescens MITC95 [5, 23]: 1.563 µM; Klebsiella pneumoniae MITC95 [6, 24]: 12.5 µM |
| CN(CCC(=O)O)Cc1ccc(-c2cccc(S(N)(=O)=O)c2-c2nnn[nH]2)cc1 [Example 361, N-methyl-N-{[3′-sulfamoyl-2′-(1H-tetrazol-5-yl)biphenyl-4-yl]methyl}-beta-alanine] | – | – | – | – | – | – | IC50 [1, 19]: 271 nM; IC50 [2, 20]: 139 nM; IC50 [3, 21]: 12.9 nM; Escherichia coli MITC95 [4, 22]: 2.344 µM; Serratia marcescens MITC95 [5, 23]: 3.125 µM; Klebsiella pneumoniae MITC95 [6, 24]: 25 µM |
| NS(=O)(=O)c1c(C(F)(F)F)ccc(N2CCN(CCCO)CC2)c1-c1nnn[nH]1 [Example 664, 3-[4-(3-hydroxypropyl)piperazin-1-yl]-2-(1H-tetrazol-5-yl)-6-(trifluoromethyl)benzenesulfonamide] | 52 | 38.5 | 18.1 | 0.25 | 0.418 | 6.25 | – |
| NS(=O)(=O)c1cccc(C2CCCC2)c1-c1nnn[nH]1 [Example 160, 3-cyclopentyl-2-(1H-tetrazol-5-yl)benzenesulfonamide] | – | – | – | – | – | – | IC50 [1, 7]: 280 nM; IC50 [2, 8]: 251 nM; IC50 [3, 8]: 9 nM; Escherichia coli expressing NDM-1 (CLB 30016) MITC95 [4]: 0.7813 µM; Serratia marcescens expressing IMP-1 (CL5741) MITC95 [5]: 9.375 µM; Klebsiella pneumoniae expressing VIM-1 (IHMA 599644) MITC95 [6]: 75 µM |
| NS(=O)(=O)c1c(C[C@H]2CC[C@H](N)CC2)ccc(-c2ccc(C3CNC3)cc2)c1-c1nn[nH]n1 [Example 595, 4-(((1r,4r)-4-aminocyclohexyl)methyl)-4′-(azetidin-3-yl)-2-(2H-tetrazol-5-yl)-[1,1′-biphenyl]-3-sulfonamide] | – | 42.6 | 4.34 | 0.7813 | 3.125 | 1.563 | IC50 [1, 18]: 1.3 nM |
| NC[C@H]1CC[C@@H](Cc2ccc(-c3ccc(C4CCNC4)cc3)c(-c3nnn[nH]3)c2S(N)(=O)=O)CC1 (stereo partly drawn) [Example 587, 4-(((1s,4s)-4-(aminomethyl)cyclohexyl)methyl)-4′-(pyrrolidin-3-yl)-2-(1H-tetrazol-5-yl)-[1,1′-biphenyl]-3-sulfonamide] | 11.5 | 2.83 | 0.798 | 0.7813 | 1.563 | 6.25 | – |
| NS(=O)(=O)c1c(C(F)(F)F)ccc([C@H]2CC[C@H](NCC3CCNCC3)CC2)c1-c1nnn[nH]1 [Example 680, 3-{4-[(piperidin-4-ylmethyl)amino]cyclohex-yl}-2-(1H-tetrazol-5-yl)-6-(trifluoromethyl)benzene sulfonamide] | 5.16 | 86.6 | 41.4 | 1.563 | 3.125 | 6.25 | – |
